From patent US20250353891A1 (MEDIMMUNE LIMITED, priority 2022, published 2025)
pEC50: −log10 of the molar value. Starred links: 1 amine or outer side, 2 acyl side, 3 side chain; linkers in the order of their positions; H or OH if unused. Non-standard residues stand in square brackets, D forms with d. Residues, ends and D or L forms follow the SMILES beside them. Groups on a side chain read outwards from the residue. *: point of attachment. Dip = N[C@H](C(=O)O)C(c1ccccc1)c1ccccc1; γGlu = O=C(O)[C@H](CCC(=O)[*:2])N[*:1]; Stearoyl = CCCCCCCCCCCCCCCCCC(=O)*; Palmitoyl = CCCCCCCCCCCCCCCC(=O)*; αMeF = C[C@](N)(Cc1ccccc1)C(=O)O; PEG4 = NCCOCCOCCOCCOCCC(=O)O; PEG2 = NCCOCCOCCC(=O)O; Aib = CC(C)(N)C(=O)O

Experiments:
[1] = target: human GLP-1 receptor (hGLP-1R) (Homo sapiens, UniProt P43220); experiment: cAMP production (HTRF) in CHO cells expressing hGLP-1R; format: cell-based; design: expressed in transfected cells; conditions: for pEC50: Table 6, peptides modified at position 17, cAMP in CHO hGLP-1R cells, geometric mean, read-out: hGLP-1R EC50; for % Relative Potency Ratio: Table 6, % GLP-1R activity relative to GLP-1 / % GlucR activity relative to glucagon
Chain of human GLP-1 receptor (hGLP-1R) (P43220 24-463): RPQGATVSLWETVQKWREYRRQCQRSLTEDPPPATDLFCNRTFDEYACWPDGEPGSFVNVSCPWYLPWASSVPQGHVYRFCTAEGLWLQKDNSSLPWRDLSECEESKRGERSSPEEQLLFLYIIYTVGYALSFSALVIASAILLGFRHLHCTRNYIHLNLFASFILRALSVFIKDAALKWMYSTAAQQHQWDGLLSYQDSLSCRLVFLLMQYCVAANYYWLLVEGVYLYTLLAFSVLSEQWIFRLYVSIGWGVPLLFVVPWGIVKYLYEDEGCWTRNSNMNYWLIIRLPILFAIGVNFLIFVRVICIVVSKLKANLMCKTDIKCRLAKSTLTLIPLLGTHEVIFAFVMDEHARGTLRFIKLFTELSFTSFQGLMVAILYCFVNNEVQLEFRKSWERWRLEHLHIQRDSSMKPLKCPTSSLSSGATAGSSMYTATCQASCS
Method in brief: (§1)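 Read-out: HTRF cAMP (anti-cAMP cryptate donor, cAMP-d2 acceptor in conjugate/lysis buffer), converted to % Delta F and fitted by 4-parameter logistic for EC50. Cell densities were 1×10^5 cells/mL (hGLP-1R) or 2×10^5 cells/mL (hGCGR). Stimulation lasted 30 min at room temperature.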

[2] = target: human glucagon receptor (hGCGR) (Homo sapiens, UniProt P47871); experiment: cAMP production (HTRF) in CHO cells expressing hGCGR; format: cell-based; design: expressed in transfected cells; conditions: Table 6, peptides modified at position 17; cAMP in CHO hGCGR cells; geometric mean; read-out: hGluc-R EC50
Chain of human glucagon receptor (hGCGR) (P47871 26-477): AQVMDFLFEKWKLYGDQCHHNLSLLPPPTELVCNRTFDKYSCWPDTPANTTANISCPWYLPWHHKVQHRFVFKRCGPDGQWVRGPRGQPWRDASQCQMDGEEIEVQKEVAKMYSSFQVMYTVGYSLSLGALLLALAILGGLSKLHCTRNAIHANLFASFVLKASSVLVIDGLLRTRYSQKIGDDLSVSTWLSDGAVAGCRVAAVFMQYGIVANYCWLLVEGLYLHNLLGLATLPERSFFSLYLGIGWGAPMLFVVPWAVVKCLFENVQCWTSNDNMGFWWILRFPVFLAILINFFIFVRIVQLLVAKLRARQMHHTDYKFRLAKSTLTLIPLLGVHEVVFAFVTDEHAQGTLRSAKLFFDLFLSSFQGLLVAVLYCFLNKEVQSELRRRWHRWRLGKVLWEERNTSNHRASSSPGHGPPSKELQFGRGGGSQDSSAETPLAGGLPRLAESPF
Method in brief: as §1

Compound | pEC50 [1] | % Relative Potency Ratio [1] | pEC50 [2]
CCCCCCCCCCCCCCCC(=O)N[C@@H](CCC(=O)NCCOCCOCCC(=O)NCCOCCOCCC(=O)NCCCC[C@H](NC(=O)[C@H](CO)NC(=O)[C@H](CC(=O)O)NC(=O)[C@H](CC(C)C)NC(=O)[C@@H](NC(=O)[C@H](CCCCN)NC(=O)[C@H](CO)NC(=O)[C@@H](NC(=O)[C@H](CC(=O)O)NC(=O)[C@H](CO)NC(=O)[C@@H](NC(=O)[C@](C)(Cc1ccccc1)NC(=O)[C@H](CO)NC(=O)CNC(=O)[C@H](CCC(N)=O)NC(=O)C(C)(C)NC(=O)[C@@H](N)Cc1c[nH]cn1)[C@@H](C)O)C(C)C)C(c1ccccc1)c1ccccc1)C(=O)N[C@@H](C)C(=O)N[C@@H](C)C(=O)N[C@@H](CCC(N)=O)C(=O)N[C@@H](CC(=O)O)C(=O)N[C@@](C)(Cc1ccccc1)C(=O)N[C@H](C(=O)N[C@@H](CCC(N)=O)C(=O)NC(C)(C)C(=O)N[C@H](C(=O)N[C@@H](C)C(=O)N[C@@H](CC(N)=O)C(N)=O)[C@@H](C)CC)C(C)C)C(=O)O [Peptide 67] (H-H[Aib]QGS[αMeF]TSDVSK[Dip]LDSK([PEG2-PEG2-γGlu-Palmitoyl])AAQD[αMeF]VQ[Aib]IAN-NH2; N-terminus assumed) | 11.61 | 7.7 | 11.02
CCCCCCCCCCCCCCCCCC(=O)N[C@@H](CCC(=O)N[C@@H](CCC(=O)NCCOCCOCCOCCOCCC(=O)NCCCC[C@H](NC(=O)[C@H](CO)NC(=O)[C@H](CC(=O)O)NC(=O)[C@H](CC(C)C)NC(=O)[C@](C)(Cc1ccccc1)NC(=O)[C@H](CCCCN)NC(=O)[C@H](CO)NC(=O)[C@@H](NC(=O)[C@H](CC(=O)O)NC(=O)[C@H](CO)NC(=O)[C@@H](NC(=O)[C@](C)(Cc1ccccc1)NC(=O)[C@H](CO)NC(=O)CNC(=O)[C@H](CCC(N)=O)NC(=O)C(C)(C)NC(=O)[C@@H](N)Cc1c[nH]cn1)[C@@H](C)O)C(C)C)C(=O)N[C@@H](CCCNC(=N)N)C(=O)N[C@@H](C)C(=O)N[C@@H](CCC(N)=O)C(=O)N[C@@H](CC(=O)O)C(=O)N[C@@](C)(Cc1ccccc1)C(=O)N[C@H](C(=O)N[C@@H](CCC(=O)O)C(=O)NC(C)(C)C(=O)N[C@@H](CC(C)C)C(=O)N[C@@H](CCC(=O)O)C(=O)N[C@@H](C)C(=O)NCC(=O)NCC(N)=O)C(C)C)C(=O)O)C(=O)O [Peptide 70] (H-H[Aib]QGS[αMeF]TSDVSK[αMeF]LDSK([PEG4-γGlu-γGlu-Stearoyl])RAQD[αMeF]VE[Aib]LEAGG-NH2) | 11.81 | 39.4 | 10.51
CCCCCCCCCCCCCCCC(=O)N[C@@H](CCC(=O)N[C@@H](CCC(=O)NCCOCCOCCOCCOCCC(=O)NCCCC[C@H](NC(=O)[C@H](CO)NC(=O)[C@H](CC(=O)O)NC(=O)[C@H](CC(C)C)NC(=O)[C@](C)(Cc1ccccc1)NC(=O)[C@H](CCCCN)NC(=O)[C@H](CO)NC(=O)[C@@H](NC(=O)[C@H](CC(=O)O)NC(=O)[C@H](CO)NC(=O)[C@@H](NC(=O)[C@](C)(Cc1ccccc1)NC(=O)[C@H](CO)NC(=O)CNC(=O)[C@H](CCC(N)=O)NC(=O)C(C)(C)NC(=O)[C@@H](N)Cc1c[nH]cn1)[C@@H](C)O)C(C)C)C(=O)N[C@@H](C)C(=O)N[C@@H](C)C(=O)N[C@@H](CCC(N)=O)C(=O)N[C@@H](CC(=O)O)C(=O)N[C@@](C)(Cc1ccccc1)C(=O)N[C@H](C(=O)N[C@@H](CCC(=O)O)C(=O)NC(C)(C)C(=O)N[C@@H](CC(C)C)C(=O)N[C@@H](CCC(=O)O)C(=O)N[C@@H](C)C(=O)NCC(=O)NCC(N)=O)C(C)C)C(=O)O)C(=O)O [Peptide 72] (H-H[Aib]QGS[αMeF]TSDVSK[αMeF]LDSK([PEG4-γGlu-γGlu-Palmitoyl])AAQD[αMeF]VE[Aib]LEAGG-NH2) | 11.47 | 42.6 | 10.13
CCCCCCCCCCCCCCCC(=O)N[C@@H](CCC(=O)N[C@@H](CCC(=O)NCCOCCOCCC(=O)NCCOCCOCCC(=O)NCCCC[C@H](NC(=O)[C@H](CO)NC(=O)[C@H](CC(=O)O)NC(=O)[C@H](CC(C)C)NC(=O)[C@](C)(Cc1ccccc1)NC(=O)[C@H](CCCCN)NC(=O)[C@H](CO)NC(=O)[C@@H](NC(=O)[C@H](CC(=O)O)NC(=O)[C@H](CO)NC(=O)[C@@H](NC(=O)[C@](C)(Cc1ccccc1)NC(=O)[C@H](CO)NC(=O)CNC(=O)[C@H](CCC(N)=O)NC(=O)C(C)(C)NC(=O)[C@@H](N)Cc1c[nH]cn1)[C@@H](C)O)C(C)C)C(=O)N[C@@H](C)C(=O)N[C@@H](C)C(=O)N[C@@H](CCC(N)=O)C(=O)N[C@@H](CC(=O)O)C(=O)N[C@H](C(=O)N[C@H](C(=O)N[C@@H](CCC(N)=O)C(=O)N[C@H](C(=O)N[C@H](C(=O)N[C@@H](C)C(=O)N[C@@H](CC(N)=O)C(N)=O)[C@@H](C)CC)[C@@H](C)CC)C(C)C)[C@@H](C)CC)C(=O)O)C(=O)O [Peptide 75] (H-H[Aib]QGS[αMeF]TSDVSK[αMeF]LDSK([PEG2-PEG2-γGlu-γGlu-Palmitoyl])AAQDIVQIIAN-NH2; N-terminus assumed) | 10.72 | 293.5 | 8.55
CCCCCCCCCCCCCCCCCC(=O)N[C@@H](CCC(=O)N[C@@H](CCC(=O)NCCOCCOCCC(=O)NCCOCCOCCC(=O)NCCCC[C@H](NC(=O)[C@H](CO)NC(=O)[C@H](CC(=O)O)NC(=O)[C@H](CC(C)C)NC(=O)[C@](C)(Cc1ccccc1)NC(=O)[C@H](CCCCN)NC(=O)[C@H](CO)NC(=O)[C@@H](NC(=O)[C@H](CC(=O)O)NC(=O)[C@H](CO)NC(=O)[C@@H](NC(=O)[C@](C)(Cc1ccccc1)NC(=O)[C@H](CO)NC(=O)CNC(=O)[C@H](CCC(N)=O)NC(=O)C(C)(C)NC(=O)[C@@H](N)Cc1c[nH]cn1)[C@@H](C)O)C(C)C)C(=O)N[C@@H](C)C(=O)N[C@@H](C)C(=O)N[C@@H](CCC(N)=O)C(=O)N[C@@H](CC(=O)O)C(=O)N[C@@](C)(Cc1ccccc1)C(=O)N[C@H](C(=O)N[C@@H](CCC(N)=O)C(=O)NC(C)(C)C(=O)N[C@H](C(=O)N[C@H](C(=O)N[C@@H](CCC(=O)O)C(=O)NCC(=O)NCC(N)=O)C(C)C)C(C)C)C(C)C)C(=O)O)C(=O)O [Peptide 76] (H-H[Aib]QGS[αMeF]TSDVSK[αMeF]LDSK([PEG2-PEG2-γGlu-γGlu-Stearoyl])AAQD[αMeF]VQ[Aib]VVEGG-NH2; N-terminus assumed) | 11.75 | 378.6 | 9.47
CCCCCCCCCCCCCCCCCC(=O)N[C@@H](CCC(=O)N[C@@H](CCC(=O)NCCOCCOCCC(=O)NCCOCCOCCC(=O)NCCCC[C@H](NC(=O)[C@H](CO)NC(=O)[C@H](CC(=O)O)NC(=O)[C@H](CC(C)C)NC(=O)[C@](C)(Cc1ccccc1)NC(=O)[C@H](CCCCN)NC(=O)[C@H](CO)NC(=O)[C@@H](NC(=O)[C@H](CC(=O)O)NC(=O)[C@H](CO)NC(=O)[C@@H](NC(=O)[C@](C)(Cc1ccccc1)NC(=O)[C@H](CO)NC(=O)CNC(=O)[C@H](CCC(N)=O)NC(=O)C(C)(C)NC(=O)[C@@H](N)Cc1c[nH]cn1)[C@@H](C)O)C(C)C)C(=O)N[C@@H](C)C(=O)N[C@@H](C)C(=O)N[C@@H](CCC(N)=O)C(=O)N[C@@H](CC(=O)O)C(=O)N[C@@](C)(Cc1ccccc1)C(=O)N[C@H](C(=O)N[C@@H](CCC(N)=O)C(=O)NC(C)(C)C(=O)N[C@@H](CC(C)C)C(=O)N[C@H](C(=O)N[C@@H](CO)C(=O)NCC(N)=O)[C@@H](C)CC)C(C)C)C(=O)O)C(=O)O [Peptide 77] (H-H[Aib]QGS[αMeF]TSDVSK[αMeF]LDSK([PEG2-PEG2-γGlu-γGlu-Stearoyl])AAQD[αMeF]VQ[Aib]LISG-NH2; N-terminus assumed) | 11.06 | 55.5 | 9.61
CCCCCCCCCCCCCCCC(=O)N[C@@H](CCC(=O)N[C@@H](CCC(=O)NCCOCCOCCC(=O)NCCOCCOCCC(=O)NCCCC[C@H](NC(=O)[C@H](CO)NC(=O)[C@H](CC(=O)O)NC(=O)[C@H](CC(C)C)NC(=O)[C@](C)(Cc1ccccc1)NC(=O)[C@H](CCCCN)NC(=O)[C@H](CO)NC(=O)[C@@H](NC(=O)[C@H](CC(=O)O)NC(=O)[C@H](CO)NC(=O)[C@@H](NC(=O)[C@](C)(Cc1ccccc1)NC(=O)[C@H](CO)NC(=O)CNC(=O)[C@H](CCC(N)=O)NC(=O)[C@H](CO)NC(=O)[C@@H](N)Cc1c[nH]cn1)[C@@H](C)O)C(C)C)C(=O)N[C@@H](C)C(=O)N[C@@H](C)C(=O)N[C@@H](CCC(N)=O)C(=O)N[C@@H](CC(=O)O)C(=O)N[C@@](C)(Cc1ccccc1)C(=O)N[C@H](C(=O)N[C@@H](CCC(N)=O)C(=O)NC(C)(C)C(=O)N[C@@H](CC(C)C)C(=O)N[C@@H](CCC(=O)O)C(=O)N[C@@H](C)C(=O)NCC(=O)NCC(N)=O)C(C)C)C(=O)O)C(=O)O [Peptide 79] (H-HSQGS[αMeF]TSDVSK[αMeF]LDSK([PEG2-PEG2-γGlu-γGlu-Palmitoyl])AAQD[αMeF]VQ[Aib]LEAGG-NH2; N-terminus assumed) | 11.76 | 12.2 | 10.97
CCCCCCCCCCCCCCCCCC(=O)N[C@@H](CCC(=O)N[C@@H](CCC(=O)NCCOCCOCCC(=O)NCCOCCOCCC(=O)NCCCC[C@H](NC(=O)[C@H](CO)NC(=O)[C@H](CC(=O)O)NC(=O)[C@H](CC(C)C)NC(=O)[C@](C)(Cc1ccccc1)NC(=O)[C@H](CCCCN)NC(=O)[C@H](CO)NC(=O)[C@@H](NC(=O)[C@H](CC(=O)O)NC(=O)[C@H](CO)NC(=O)[C@@H](NC(=O)[C@](C)(Cc1ccccc1)NC(=O)[C@H](CO)NC(=O)CNC(=O)[C@H](CCC(N)=O)NC(=O)[C@H](CO)NC(=O)[C@@H](N)Cc1c[nH]cn1)[C@@H](C)O)C(C)C)C(=O)N[C@@H](C)C(=O)N[C@@H](C)C(=O)N[C@@H](CCC(N)=O)C(=O)N[C@@H](CC(=O)O)C(=O)N[C@@](C)(Cc1ccccc1)C(=O)N[C@H](C(=O)N[C@@H](CCC(=O)O)C(=O)NC(C)(C)C(=O)N[C@@H](CC(C)C)C(=O)N[C@@H](CCC(=O)O)C(=O)N[C@@H](C)C(=O)NCC(=O)NCC(N)=O)C(C)C)C(=O)O)C(=O)O [Peptide 81] (H-HSQGS[αMeF]TSDVSK[αMeF]LDSK([PEG2-PEG2-γGlu-γGlu-Stearoyl])AAQD[αMeF]VE[Aib]LEAGG-NH2; N-terminus assumed) | 11.93 | 22.6 | 10.87
